Measured values from patent US20220356174A1, “PYRIDIN-2-ONE COMPOUNDS USEFUL AS SMARCA2 ANTAGONISTS” (Epizyme, Inc., priority 2018, published 2022).

Legend:
A549 cells [1] = experiment: Long term proliferation (LTP) assay, day 15 IC50 in A549 cells; format: cell-based; details: Homo sapiens, 360 h
A549 cells [2] = experiment: High-throughput proliferation (HTP) assay for A549 cells (CellTiter-Glo, 7 days); format: cell-based; details: Homo sapiens, 168 h, read-out: A549 SMARCA2 IC50
In short: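 A549 cells plated at 62.5 cells/well in F12K + 10% HI-FBS onto pre-dispensed compound, grown 7 days at 37° C., 5% CO2. Viability by CellTiter-Glo luminescence after 30 min at RT; EC50/IC50 from DMSO (0%) and 10 μM Doxorubicin (100%) inhibition controls.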

FL-SMARCA4 = FL-SMARCA4 (Homo sapiens, UniProt P51532); experiment: SMARCA4 ATPase activity assay (ADP-Glo, chicken mononucleosome substrate); details: ATPase assay, enzyme 5 nM, ATP 250 uM, chicken mononucleosome 10 nM, 30 min preincubation
FL-SMARCA4, sequence (P51532 whole entry): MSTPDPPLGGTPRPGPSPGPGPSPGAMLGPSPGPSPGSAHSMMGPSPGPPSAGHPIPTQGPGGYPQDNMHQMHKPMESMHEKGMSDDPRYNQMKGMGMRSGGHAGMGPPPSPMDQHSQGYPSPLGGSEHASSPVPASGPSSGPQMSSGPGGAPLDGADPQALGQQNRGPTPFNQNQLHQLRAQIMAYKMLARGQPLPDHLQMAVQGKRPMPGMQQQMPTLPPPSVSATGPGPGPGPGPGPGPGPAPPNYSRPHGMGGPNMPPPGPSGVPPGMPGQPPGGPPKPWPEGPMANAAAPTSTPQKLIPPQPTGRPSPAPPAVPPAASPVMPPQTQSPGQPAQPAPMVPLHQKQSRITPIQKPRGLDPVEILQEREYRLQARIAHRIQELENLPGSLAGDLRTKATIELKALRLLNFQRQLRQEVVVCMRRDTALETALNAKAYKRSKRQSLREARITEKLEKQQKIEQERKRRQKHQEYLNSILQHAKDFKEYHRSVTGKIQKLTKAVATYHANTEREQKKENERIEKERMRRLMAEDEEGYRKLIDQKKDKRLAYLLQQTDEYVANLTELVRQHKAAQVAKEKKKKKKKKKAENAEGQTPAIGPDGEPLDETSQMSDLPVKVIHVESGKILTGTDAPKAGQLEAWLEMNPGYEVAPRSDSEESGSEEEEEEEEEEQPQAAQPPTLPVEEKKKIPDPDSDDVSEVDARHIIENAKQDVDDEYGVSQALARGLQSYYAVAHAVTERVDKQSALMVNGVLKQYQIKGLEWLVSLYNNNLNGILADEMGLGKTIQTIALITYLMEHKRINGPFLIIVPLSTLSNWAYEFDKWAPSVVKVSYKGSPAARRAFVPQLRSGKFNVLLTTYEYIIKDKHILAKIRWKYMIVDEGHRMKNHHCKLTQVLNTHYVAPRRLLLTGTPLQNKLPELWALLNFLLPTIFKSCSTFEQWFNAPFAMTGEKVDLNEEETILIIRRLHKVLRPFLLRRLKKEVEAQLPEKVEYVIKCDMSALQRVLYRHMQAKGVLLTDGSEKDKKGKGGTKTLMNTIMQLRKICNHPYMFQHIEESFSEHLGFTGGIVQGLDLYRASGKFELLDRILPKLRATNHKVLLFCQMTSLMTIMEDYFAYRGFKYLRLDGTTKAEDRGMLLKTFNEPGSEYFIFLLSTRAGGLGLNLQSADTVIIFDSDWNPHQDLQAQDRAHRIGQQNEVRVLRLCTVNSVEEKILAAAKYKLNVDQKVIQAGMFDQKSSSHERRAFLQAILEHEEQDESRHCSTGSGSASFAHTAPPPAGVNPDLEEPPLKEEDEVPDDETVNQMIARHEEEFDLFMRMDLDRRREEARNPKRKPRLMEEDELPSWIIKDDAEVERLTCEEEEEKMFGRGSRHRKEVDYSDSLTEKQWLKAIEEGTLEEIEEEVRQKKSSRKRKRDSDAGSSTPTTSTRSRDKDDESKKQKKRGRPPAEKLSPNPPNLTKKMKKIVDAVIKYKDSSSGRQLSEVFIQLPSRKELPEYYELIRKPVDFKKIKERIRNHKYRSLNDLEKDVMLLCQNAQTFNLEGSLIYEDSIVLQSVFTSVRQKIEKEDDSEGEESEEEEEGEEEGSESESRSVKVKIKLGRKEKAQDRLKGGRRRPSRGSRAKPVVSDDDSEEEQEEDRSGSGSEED

H358 cells = experiment: High-throughput proliferation (HTP) assay for H358 cells (CellTiter-Glo, 7 days); format: cell-based; details: Homo sapiens, NCI-H358, 168 h, read-out: H358 SMARCA2 IC50
In short: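 Cells were plated at 1,000 cells/well in RPMI 1640 + 10% HI-FBS + 1% pen/strep on pre-dispensed compound and incubated 7 days at 37 °C, 5% CO2. Viability was read as ATP luminescence with CellTiter-Glo after 30 min at RT. DMSO served as 0% and 10 µM doxorubicin as 100% inhibition for EC50/IC50.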

SMARCA2 = biological target: T1, SMARCA2 (Homo sapiens, UniProt P51531); experiment: SMARCA2 FRET nucleosome remodeling activity assay; format: biochemical
T1 construct: FLAG tag (YKDDDDK) (C); made in house; host or cells: Sf21 insect cells (baculovirus, pFastBacI)
T1 sequence (P51531 with tags, fused parts or gaps): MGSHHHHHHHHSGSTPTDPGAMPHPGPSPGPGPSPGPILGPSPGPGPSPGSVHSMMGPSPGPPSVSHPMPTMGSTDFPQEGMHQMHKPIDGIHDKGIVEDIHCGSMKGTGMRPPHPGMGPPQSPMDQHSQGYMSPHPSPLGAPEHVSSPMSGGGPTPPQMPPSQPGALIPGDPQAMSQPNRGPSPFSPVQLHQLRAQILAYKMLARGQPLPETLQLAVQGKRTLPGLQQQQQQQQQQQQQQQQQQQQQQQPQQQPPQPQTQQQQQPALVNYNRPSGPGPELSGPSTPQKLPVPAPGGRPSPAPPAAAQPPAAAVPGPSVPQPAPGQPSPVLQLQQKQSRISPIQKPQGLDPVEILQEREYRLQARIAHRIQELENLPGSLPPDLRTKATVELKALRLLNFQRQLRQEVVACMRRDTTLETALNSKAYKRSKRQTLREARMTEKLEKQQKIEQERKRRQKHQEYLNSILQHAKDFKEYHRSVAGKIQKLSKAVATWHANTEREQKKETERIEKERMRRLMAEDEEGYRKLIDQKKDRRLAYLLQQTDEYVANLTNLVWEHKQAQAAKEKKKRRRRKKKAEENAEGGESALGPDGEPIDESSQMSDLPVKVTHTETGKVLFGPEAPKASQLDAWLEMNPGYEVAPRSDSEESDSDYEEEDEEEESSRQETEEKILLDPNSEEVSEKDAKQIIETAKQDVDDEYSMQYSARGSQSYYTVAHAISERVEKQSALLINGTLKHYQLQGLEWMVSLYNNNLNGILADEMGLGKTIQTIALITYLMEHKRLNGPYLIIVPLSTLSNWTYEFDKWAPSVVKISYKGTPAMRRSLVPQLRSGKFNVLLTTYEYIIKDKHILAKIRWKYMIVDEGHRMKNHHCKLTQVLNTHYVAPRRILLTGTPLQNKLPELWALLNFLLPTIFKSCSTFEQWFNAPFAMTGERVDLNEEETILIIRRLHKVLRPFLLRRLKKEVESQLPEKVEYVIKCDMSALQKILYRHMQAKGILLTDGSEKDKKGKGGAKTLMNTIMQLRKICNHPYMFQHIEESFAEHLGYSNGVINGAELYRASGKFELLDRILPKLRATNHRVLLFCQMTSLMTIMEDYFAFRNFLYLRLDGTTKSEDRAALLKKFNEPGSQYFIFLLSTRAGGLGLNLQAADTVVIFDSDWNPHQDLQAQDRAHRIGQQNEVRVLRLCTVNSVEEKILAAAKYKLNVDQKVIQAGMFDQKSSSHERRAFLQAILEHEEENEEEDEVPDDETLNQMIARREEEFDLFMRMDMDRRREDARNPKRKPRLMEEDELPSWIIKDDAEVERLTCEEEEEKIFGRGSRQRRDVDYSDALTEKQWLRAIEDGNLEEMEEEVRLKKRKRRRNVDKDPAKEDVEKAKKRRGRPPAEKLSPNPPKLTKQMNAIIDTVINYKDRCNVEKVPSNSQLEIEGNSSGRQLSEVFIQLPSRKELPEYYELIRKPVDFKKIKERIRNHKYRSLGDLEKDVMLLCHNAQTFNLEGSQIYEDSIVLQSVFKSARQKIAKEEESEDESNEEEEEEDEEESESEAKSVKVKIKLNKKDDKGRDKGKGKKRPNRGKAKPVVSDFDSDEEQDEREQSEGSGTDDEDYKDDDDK
Method: The SMARCA2 remodeling assay was initiated by the addition of 2 uL of a nucleosome remodeling assay substrate and ATP mixture (final volume=10 uL). […] The assays were terminated after 15 minutes by the addition of 2 uL EDTA (final concentration of 25 mM). The SMARCA2 remodeling activity was determined by measuring the fluorescence ratio of the Cy3 and Cy5 labels ([…]). The remodeling of the nucleosome substrate causes an increase in the spacing between the Cy3 and Cy5 labels and therefore a reduction in FRET and an increase in Cy3/Cy5 fluorescence ratio.

Structure (SMILES)	IC50 (A549 cells [1])	IC50 (A549 cells [2])	IC50 (FL-SMARCA4; FL-SMARCA4 IC>50, Table 3c.2)	IC50 (H358 cells)	IC50 (FL-SMARCA4; FL-SMARCA4 IC50, Table 3.2)	IC50 (SMARCA2)
N#Cc1cc(C(=O)Nc2cc(F)c(=O)n(CC(F)F)c2)sc1C(F)(F)F [Compound 82c, 4-cyano-N-[1-(2,2-difluoroethyl)-5-fluoro-6-oxopyridin-3-yl]-5-(trifluoromethyl)thiophene-2-carboxamide]	259 nM	589 nM	66.1 nM	> 10 µM		
O=C(Nc1cc(F)c(=O)n(CC(F)F)c1)c1cc(Cl)c(C(F)(F)F)s1 [Compound 298, 4-Chloro-N-(1-(2,2-difluoroethyl)-5-fluoro-6-oxo-1,6-dihydropyridin-3-yl)-5-(trifluoromethyl)thiophene-2-carboxamide]	142 nM	682 nM		> 10 µM	165 nM	47.1 nM
N#Cc1sc(C(=O)Nc2cc(F)c(=O)n(CCF)c2)cc1Cl [Compound 139]	316 nM	868 nM			54.1 nM	25.3 nM
